Data taken from patent US8455532B2, “Pyrazolyl acrylonitrile compounds and uses thereof” (Shenyang Research Institute of Chemical Industry Co., Ltd., priority 2009, dated 2013).
Read-outs that look alike come from different tables or passages of the source.

How the values were obtained:
[1] = system: adult spider mites (Tetranychus cinnabarinus); assay: Test against adult spider mite, spray on bean leaves, mortality after 72 h; assay type: in vivo; settings: for mortality at 0.63 ppm / mortality at 2.5 ppm / mortality at 5 ppm / mortality at 10 ppm / mortality at 1.25 ppm: Tetranychus cinnabarinus, read-out: Acaricidal activity against adult spider mites (mortality, %)
Description: (§1) According to the solubility of test compounds, the compounds are dissolved in acetone or dimethyl sulfoxide, and then diluted with 0.1% aqueous solution of Tween 80 to form 50 ml test liquid, the content of acetone or dimethyl sulfoxide in the total solution is not more than 10%.
The adult spider mites (Tetranychus cinnabarinus) were put into two true leaves of bean plants. After the number of mites were investigated, the solution of certain concentrations of test compounds was sprayed using a sprinkler and repeated three times. Then the leaves were maintained in standard observation room. After 72 h the survival mites in each leaf were observed, and mortality of the mites was determined.
According to above method, the representative compounds of this invention, compound KC, (compound 30 in JP2003201280A, E configuration), KC2 (compound 31 in JP2003201280A, Z configuration) and KC3 (compound 24 in CN101367784A) were chosen to parallel activity test against adult spider mites.

[2] = system: deutonymph of spider mite (Tetranychus cinnabarinus); assay: Test against deutonymph of spider mite, spray, mortality after 72 h; assay type: in vivo; settings: read-out: Acaricidal activity against deutonymph of spider mites (mortality, %)
Description: as §1
Ten healthy female adult spider mites (Tetranychus cinnabarinus) were put into two true leaves of bean plants. The adult spider mites were removed after 24 h and the eggs were continued incubating. After ten days, the number of deutonymph were investigated and recorded. The solution of certain concentrations of test compounds was sprayed using a sprinkler and repeated three times. Then the deutonymph of spider mites were maintained in standard observation room. After 72 h, the survival mites in each leaf were observed, and mortality of the mites was determined.
According to above method, high acaricidal compound 5.1, 90.1 in present invention, and known high acaricidal compound KC1 were chosen to parallel activity test against deutonymph of spider mite.

[3] = system: egg of spider mite (Tetranychus cinnabarinus); assay: Test against egg of spider mite, spray, incubation inhibition; assay type: in vivo; settings: read-out: Acaricidal activity against eggs of spider mites (incubation inhibition rate, %)
Description: as §1
Two true leaves of bean plants were taken and one true leaf was removed. Then ten healthy female adult spider mites were put into the true leaf. The adult spider mites were removed after 24 h and the eggs were investigated. The solution of certain concentrations of test compounds was sprayed using a sprinkler and repeated three times. The untreated eggs were all incubated after 5 days. The unincubation of treated eggs in leaf were observed, and incubation inhibition rate of the eggs were determined.
According to the above method, high acaricidal compound 5.1, 90.1 in present invention, and known high acaricidal compound KC1 were chosen to parallel activity test against eggs of spider mites.

[4] = system: peach aphid (Myzus peisicae Sulzer); assay: Test against peach aphid, spray on cabbage leaves, mortality after 72 h; assay type: in vivo
Description: as §1
The cabbage leaves with peach aphids were taken and after the number of peach aphids were investigated, the solution of certain concentrations of test compounds was sprayed using a sprinkler and repeated three times. Then the leaves were maintained in standard observation room. After 72 h, the survival peach aphids were observed, and mortality of the peach aphids was determined.

spider mites = assay: Test of systemic activity against spider mite through root absorbtion; assay type: in vivo; settings: root dip 24 h, 72 h after infestation
Description: The test compounds are dissolved in acetone, and then diluted with 0.1% aqueous solution of Tween 80 to form test solution in different concentration and every treatment was repeated three times. Water is blank control. The 10 mL test compound solution was added into the tube. Two true leaves bean plants were taken and the soil in the root was removed. The bean plant was dipped into the test solution in different concentration. After absorbing 24 h, 30 to 50 spider mites were put onto the true leaves. Then the bean plants were maintained in observation room at 25±1° C. After 72 h, the death and survival mites in each leaf was observed, the mortality of the mites and systemic activity was determined.

[5] = in JP2003206280A; cited from earlier work
spider mite = settings: 400 ppm, in CN101367784A; cited from earlier work

Compound: CCn1nc(C)cc1C(O)=C(C#N)c1ccc(C(C)(C)C)cc1 [Compound 1, 3-(1-ethyl-3-methylpyrazol-5-yl)-2-(4-tertbutylphenyl)-3-hydroxy-acrylonitrile]
- melting point: 70 to 72 °C

Compound: CCn1nc(C)cc1C(OC(=O)C(C)(C)C)=C(C#N)c1ccc(C(C)(C)C)cc1 [Compound 5.1]
- Acaricidal activity against adult spider mites (mortality, %) ([1]; 1.25 ppm, spray): 98%
- mortality at 0.63 ppm ([1]; 0.63 ppm, spray): 42%
- mortality at 2.5 ppm ([1]; 2.5 ppm, spray): 100%
- mortality at 5 ppm ([1]; 5 ppm, spray): 100%
- mortality at 10 ppm ([1]; 10 ppm, spray): 100%
- mortality at 0.16 ppm ([2]; 0.16 ppm, spray): 94%
- mortality at 0.63 ppm ([2]; 0.63 ppm, spray): 100%
- mortality at 2.5 ppm ([2]; 2.5 ppm, spray): 100%
- inhibition at 2.5 ppm [3]: 66%
- inhibition at 5 ppm [3]: 100%
- inhibition at 10 ppm [3]: 100%

Compound: CCn1nc(C)cc1C(OC(=O)C(C)(C)C)=C(C#N)c1ccc(C(C)(C)C)cc1 [Compound 5.2]
- Acaricidal activity against adult spider mites (mortality, %) ([1]; 0.63 ppm, spray): 56%
- Acaricidal activity against adult spider mites (mortality, %) ([1]; 1.25 ppm, spray): 65%
- Acaricidal activity against adult spider mites (mortality, %) ([1]; 2.5 ppm, spray): 87%
- Acaricidal activity against adult spider mites (mortality, %) ([1]; 5 ppm, spray): 100%
- Acaricidal activity against adult spider mites (mortality, %) ([1]; 10 ppm, spray): 100%

Compound: CCOC(=O)OC(=C(C#N)c1ccc(C(C)(C)C)cc1)c1cc(C)nn1CC [Compound 17.1]
- melting point: 96 to 97 °C

Compound: CCn1nc(C)c(C)c1C(O)=C(C#N)c1ccc(C(C)(C)C)cc1 [Compound 39, 3-(1-ethyl-3,4-dimethylpyrazol-5-yl)-2-(4-tertbutylphenyl)-3-hydroxyl-acrylonitrile]
- melting point: 86 to 88 °C

Compound: CCn1nc(C)c(C)c1C(OC(=O)C(C)(C)C)=C(C#N)c1ccc(C(C)(C)C)cc1 [Compound 42.1]
- Acaricidal activity against adult spider mites (mortality, %) ([1]; 0.63 ppm, spray): 20%
- Acaricidal activity against adult spider mites (mortality, %) ([1]; 1.25 ppm, spray): 93%
- mortality at 2.5 ppm ([1]; 2.5 ppm, spray): 100%
- mortality at 5 ppm ([1]; 5 ppm, spray): 100%
- mortality at 10 ppm ([1]; 10 ppm, spray): 100%

Compound: CCn1nc(C)c(C)c1C(OC(=O)C(C)(C)C)=C(C#N)c1ccc(C(C)(C)C)cc1 [Compound 42.2]
- Acaricidal activity against adult spider mites (mortality, %) ([1]; 0.63 ppm, spray): 51%
- Acaricidal activity against adult spider mites (mortality, %) ([1]; 1.25 ppm, spray): 70%
- Acaricidal activity against adult spider mites (mortality, %) ([1]; 2.5 ppm, spray): 100%
- Acaricidal activity against adult spider mites (mortality, %) ([1]; 5 ppm, spray): 100%
- Acaricidal activity against adult spider mites (mortality, %) ([1]; 10 ppm, spray): 100%

Compound: CCn1nc(C)c(C)c1C(OC(=O)C1CC1)=C(C#N)c1ccc(C(C)(C)C)cc1 [Compound 44.2]
- mortality at 0.63 ppm ([1]; 0.63 ppm, spray): 65%
- mortality at 1.25 ppm ([1]; 1.25 ppm, spray): 97%
- mortality at 2.5 ppm ([1]; 2.5 ppm, spray): 100%
- mortality at 5 ppm ([1]; 5 ppm, spray): 100%
- mortality at 10 ppm ([1]; 10 ppm, spray): 100%

Compound: CCn1nc(C)c(C)c1C(OC(=O)C1CCC1)=C(C#N)c1ccc(C(C)(C)C)cc1 [Compound 50.1]
- mortality at 0.63 ppm ([1]; 0.63 ppm, spray): 93%
- mortality at 1.25 ppm ([1]; 1.25 ppm, spray): 100%
- mortality at 2.5 ppm ([1]; 2.5 ppm, spray): 100%
- mortality at 5 ppm ([1]; 5 ppm, spray): 100%
- mortality at 10 ppm ([1]; 10 ppm, spray): 100%

Compound: CCOC(=O)OC(=C(C#N)c1ccc(C(C)(C)C)cc1)c1c(C)c(C)nn1CC [Compound 54.1]
- mortality at 1.25 ppm ([1]; 1.25 ppm, spray): 100%
- mortality at 2.5 ppm ([1]; 2.5 ppm, spray): 100%
- mortality at 5 ppm ([1]; 5 ppm, spray): 100%
- mortality at 10 ppm ([1]; 10 ppm, spray): 100%

Compound: CCn1nc(C)c(F)c1C(O)=C(C#N)c1ccc(C(C)(C)C)cc1 [Compound 81, 3-(1-ethyl-4-fluoro-3-methylpyrazol-5-yl)-2-(4-tertbutylphenyl)-3-hydroxy-acrylonitrile]
- mortality at 600 ppm [4]: 60%

Compound: CCn1nc(C)c(Cl)c1C(OC(=O)C(C)(C)C)=C(C#N)c1ccc(C(C)(C)C)cc1 [Compound 90.1]
- Acaricidal activity against adult spider mites (mortality, %) ([1]; 0.63 ppm, spray): 55%
- mortality at 1.25 ppm ([1]; 1.25 ppm, spray): 100%
- mortality at 2.5 ppm ([1]; 2.5 ppm, spray): 100%
- mortality at 5 ppm ([1]; 5 ppm, spray): 100%
- mortality at 10 ppm ([1]; 10 ppm, spray): 100%
- Systemic activity against spider mites through root absorbtion (mortality, %) (spider mites; 50 ppm): 66%
- Systemic activity against spider mites through root absorbtion (mortality, %) (spider mites; 100 ppm): 98%
- Systemic activity against spider mites through root absorbtion (mortality, %) (spider mites; 200 ppm): 100%
- mortality at 0.16 ppm ([2]; 0.16 ppm, spray): 82%
- mortality at 0.63 ppm ([2]; 0.63 ppm, spray): 90%
- mortality at 2.5 ppm ([2]; 2.5 ppm, spray): 100%
- inhibition at 2.5 ppm [3]: 73%
- inhibition at 5 ppm [3]: 100%
- inhibition at 10 ppm [3]: 100%

Compound: CCn1nc(C)c(Cl)c1C(OC(=O)C(C)(C)C)=C(C#N)c1ccc(C(C)(C)C)cc1 [Compound 90.2]
- Acaricidal activity against adult spider mites (mortality, %) ([1]; 0.63 ppm, spray): 28%
- Acaricidal activity against adult spider mites (mortality, %) ([1]; 1.25 ppm, spray): 100%
- Acaricidal activity against adult spider mites (mortality, %) ([1]; 2.5 ppm, spray): 100%
- Acaricidal activity against adult spider mites (mortality, %) ([1]; 5 ppm, spray): 100%
- Acaricidal activity against adult spider mites (mortality, %) ([1]; 10 ppm, spray): 100%

Compound: CCOC(=O)OC(=C(C#N)c1ccc(C(C)(C)C)cc1)c1c(Cl)c(C)nn1CC [Compound 101.1]
- mortality at 1.25 ppm ([1]; 1.25 ppm, spray): 50%
- mortality at 2.5 ppm ([1]; 2.5 ppm, spray): 91%
- mortality at 5 ppm ([1]; 5 ppm, spray): 100%
- mortality at 10 ppm ([1]; 10 ppm, spray): 100%

Compound: Cc1nn(C)c(/C(OC(=O)C(C)(C)C)=C(\C#N)c2ccc(C(C)(C)C)cc2)c1C [KC1, cyenopyrafen, reference compound]
- mortality at 1.25 ppm [1]: 30%
- mortality at 2.5 ppm [1]: 85%
- mortality at 5 ppm [1]: 100%
- mortality at 10 ppm [1]: 100%
- Systemic activity against spider mites through root absorbtion (mortality, %) (spider mites; 50 ppm): 0%
- Systemic activity against spider mites through root absorbtion (mortality, %) (spider mites; 100 ppm): 0%
- Systemic activity against spider mites through root absorbtion (mortality, %) (spider mites; 200 ppm): 0%
- mortality at 0.16 ppm [2]: 20%
- mortality at 0.63 ppm [2]: 70%
- mortality at 2.5 ppm [2]: 82%
- inhibition at 2.5 ppm [3]: 7%
- inhibition at 5 ppm [3]: 84%
- inhibition at 10 ppm [3]: 100%
- insecticidal and acaricidal activity [5]: good insecticidal and acaricidal activity

Compound: Cc1nn(C)c(/C(OC(=O)C(C)(C)C)=C(/C#N)c2ccc(C(C)(C)C)cc2)c1C [KC2, reference compound]
- mortality at 1.25 ppm [1]: 0%
- mortality at 2.5 ppm [1]: 55%
- mortality at 5 ppm [1]: 100%
- mortality at 10 ppm [1]: 100%

Compound: CCc1nn(C)c(/C(OC(C)=O)=C(\C#N)c2ccc(C(C)(C)C)cc2)c1Cl [KC3, reference compound]
- mortality against spider mite (spider mite): more than 80%
- mortality at 10 ppm [1]: 5%
